Data from US20260008805A1, “ADENOSINE ANALOGS FOR THE TREATMENT OF DISEASE” (BIOINTERVENE, INC., priority 2022, published 2026).
Like-named read-outs stand apart in the source and are kept apart here.

Tests used:
[1] = molecular target: T1, human A3 receptors (Homo sapiens, UniProt P0DMS8); assay: Adenosine receptor binding assay ([3H]HEMADO competition); conditions: Cheng-Prusoff, read-out: hA3 Ki
T1 construct: expressed in transfected cells; host or cells: HEK-293 cells, stably transfected; membrane preparation
T1 sequence (P0DMS8 1-318): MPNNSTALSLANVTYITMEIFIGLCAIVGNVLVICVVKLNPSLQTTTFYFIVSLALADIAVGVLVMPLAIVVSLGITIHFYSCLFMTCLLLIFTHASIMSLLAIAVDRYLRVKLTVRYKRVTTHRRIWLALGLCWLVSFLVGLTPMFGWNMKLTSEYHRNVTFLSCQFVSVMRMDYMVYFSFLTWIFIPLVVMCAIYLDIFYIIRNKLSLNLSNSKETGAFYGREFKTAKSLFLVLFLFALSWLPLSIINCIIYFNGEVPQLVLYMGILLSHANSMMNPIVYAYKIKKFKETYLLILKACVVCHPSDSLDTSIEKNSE
Source text: Materials and Reference Compounds: [^3H] HEMADO (obtained from (ARC, Cat: ART1456) and [3H] DPCPX (obtained from PerkinElmer Cat no. NET974250UC)). IB-MECA was obtained from Tocris (Bristol, UK) and N6-cyclopentyl adenosine (CPA) is obtained from Sigma-Alrich (Poole, UK). Cell culture media, G418 and hygromycin are obtained from Invitrogen (Paisley, UK). Fetal calf serum is obtained from Perbio Science (Cheshire, UK). All other reagents are obtained from Fisher Chemicals (Loughborough, UK).
The method followed is that of Yates L, Clark J H, Martin T J, James S, Broadley K J, Kidd E J. Radioligand binding and functional responses of ligands for human recombinant adenosine A3 receptors. Auton Autacoid Pharmacol. 2006; 26 (2): 191-200. Cells stably transfected with the human adenosine A3 or A1 receptor are grown in Dulbecco's modified Eagles medium with nutrient mixture F12 containing NaHCO3 and Glutamax. Media is supplemented with 10% fetal calf serum, geneticin (G418; 0.67 mg/mL), hygromycin (500 μg/mL) and adenosine deaminase (1 U/mL). Cells are maintained at 37° C. with 5% CO2 in air. Cells are harvested and homogenized in ice-cold Tris buffer [50 mM Tris, 150 mM NaCl, 1 mM ethylenediaminetetraacetic acid (EDTA), pH 7.4] supplemented with the peptidase inhibitors, 4-(2-aminoethyl)benzene sulfonylfluoride (1 mM) and bacitracin (0.1 mg/mL), using a Polytron homogenizer (3×10 s bursts). The homogenate is spun for 10 min (4° C.) at 500 g. The supernatant is retained and the pellet is re-suspended in the buffer, homogenized and spun as above. The combined supernatants are centrifuged for 15 min (4° C.) at 48,000 g. The resultant pellet is re-suspended in the buffer and centrifuged for a second time at 48,000 g. The membrane pellet is then suspended in Tris buffer containing no peptidase inhibitors or adenosine deaminase and stored at −80° C. at a protein concentration of 1 mg/mL.
Binding Assays: Radioligand-binding assays are performed using the adenosine A3 receptor agonist [^3H] HEMADO and the A1 receptor […] [^3H] DPCPX. Binding assays are conducted in a total volume of 100 μL containing a 50 mM Tris, pH 7.4 buffer with or without 10 mM MgCl2, 20 μg membranes and either 4.154 nM [3H] HEMADO (for the A3 receptor) or 1.6065 nM [^3H] DPCPX (for the A1 receptor). Assays are conducted at room temperature for 60 min (A1 receptor) or 120 min (A3 receptor) and terminated by the addition of 2 ml of ice-coldish buffer (50 mM Tris, pH 7.4 with or without 10 mM MgCl2) and rapid filtration over 0.03% polyethylenimine-treated Whatman GF/C filters using a Brandel cell harvester (Semat International Ltd., St Albans, UK). Filters are then ished three times with 2 ml of ice-cold buffer. The filter-bound radioactivity are counted using a Compugamma counter (LKB Wallac, Turku, Finland). Competition experiments are performed to investigate the ability of reference compounds and embodiments of the invention to inhibit [^3H] HEMADO binding. Non-specific binding are determined using the respective compound at its highest concentration.
Data Analysis: The Kd and Bmax values for binding data are calculated based upon the molar amounts of bound and free [^3H] HEMADO. […] IC50 and Ki values and Hill slopes for inhibition of the radioligand binding by the compounds of the invention are calculated from the ligand competition curves using the Excel spreadsheet and the Kd value calculated for either [^3H] HEMADO or [^3H] DPCPX. The results are expressed as a percent of control specific binding and as a percent inhibition of control specific binding obtained in the presence of the compounds of the invention. The IC50 values (concentration causing a half-maximal inhibition of control specific binding) and Hill coefficients (nH) are determined by non-linear regression analysis of the competition curves generated with mean replicate values using Hill equation curve fitting: […]

[2] = molecular target: T2, human adenosine A3 receptor (Homo sapiens, UniProt P0DMS8); assay: Intracellular cAMP levels (inhibition of forskolin-stimulated cAMP production); format: cell-based; conditions: for EC50: CHO-K1 cells expressing human adenosine A3 receptor, forskolin 10 μM; for cAMP Efficacy (%): maximal response as percentage of the response produced by 100 nM IB-MECA
T2 construct: expressed in transfected cells; host or cells: CHO-K1 cells, stably transfected
T2 sequence (P0DMS8 1-318): T1 sequence (P0DMS8 1-318)
Source text: The method followed is that published in Yates L, Clark J H, Martin T J, James S, Broadley K J, Kidd E J. Radioligand binding and functional responses of ligands for human recombinant adenosine A3 receptors. Auton Autacoid Pharmacol. 2006 April; 26 (2): 191-200.
Materials and Cell Culture: Adenosine deaminase is obtained from Roche (Lewes, UK). Forskolin is obtained from Sigma-Aldrich (Poole, UK). The sources of other materials are provided above in Example 1. CHO-K1 cells stably transfected with the human adenosine A3 receptor are grown in Dulbecco's modified Eagles medium with nutrient mixture F12 containing NaHCO3 and Glutamax. Media is supplemented with 10% fetal calf serum, geneticin (G418; 0.67 mg/mL), hygromycin (500 μg/mL) and adenosine deaminase (1 U/mL). Cells are maintained at 37° C. with 5% CO2 in air.
CAMP Measurements: Intracellular cAMP production is measured directly using a non-acetylation cAMP enzyme immunoassay (Amersham Biosciences, Little Chalfont, UK). Cultured CHO cells expressing human adenosine A3 receptors are allowed to plate overnight in 96-well plates in culture medium containing adenosine deaminase. Twenty-four hours later, they are incubated with adenosine analogues or compounds of the invention (0.1 nM-1 μM) for 5 min at 37° C., followed by incubation with forskolin (10 μM) for 10 min. The cells are then lysed with 200 μL of lysis reagent 1 provided with the kit for 10 min to release intracellular CAMP. Aliquots of the supernatants are then transferred to a 96-well microtitre plate coated with donkey anti-rabbit IgG; 100-μL cAMP standards (12.5-3200 fmol/well) are also added to the microtitre plate; 100 μL of rabbit anti-cAMP antibody is added to all wells and incubated at 2-5° C. for 2 h. The antiserum is made up in lysis reagent 2, which sequesters the key component in lysis reagent 1 and ensures that CAMP is free for subsequent analysis. Then 50 μL of cAMP peroxidase conjugate is added to all wells and left to incubate for 60 min at 2-5° C. to allow competition for the antibody between the un-labelled and horse radish peroxidase (HRP)-labelled cAMP. Wells are then ished with buffer and 150 μL of enzyme substrate containing 3,3′,5,5′-tetramethylbenzidine/hydrogen peroxide in 20% (v/v) dimethylformamide is added to each well and left to incubate for 60 min on a Titramax 100 microtitre plate shaker (Heidolph Instruments, Schwabach, Germany) at room temperature for color development. The reaction is stopped by the addition of 100 μL of 1 M sulfuric acid and the optical density (OD) read at 450 nm on a spectrophotometric MRX microplate reader (Dynex Technologies, Chantilly, VA, USA).
Analyses: Each sample/standard was analyzed in duplicate and the resulting OD values averaged. The percent bound (B/B0) for each standard and sample was calculated using the following relationship:
[formula] • where B is the specific OD for standard/sample and B0 is the specific OD for the zero standard. A standard curve was generated by plotting % B/B0 as a function of the log fmol cAMP standard per well. The fmol per well value for cAMP in each sample was then read from the graph. The results are expressed as a percent of control agonist response: (measured response/control response)*100 in the presence of the compounds of the invention. Concentration-response curves for inhibition of cAMP production were constructed for all compounds of the invention and reference compounds. The EC50 values (concentration producing a half-maximal response) were determined by non-linear regression analysis of the concentration-response curves generated with mean replicate values using Hill equation curve fitting, according to the equation:
[formula] • where Y=response, A=left asymptote of the curve, D=right asymptote of the curve, C=compound concentration, and C50=EC50, and nH=slope factor. […]

[3] = Table 2, membranes of HEK-293 cells expressing human A3 receptor
[4] = Table 2, # = average between two data points
[5] = Table 1, membranes of HEK-293 cells expressing human A3 receptor

Ki [1, 3] [nM]	EC50 [2, 4] [nM]	cAMP Efficacy (%) [2, 4]	Ki [1, 5] [nM]	EC50 ([2]; Table 1) [nM]	cAMP Efficacy (%) ([2]; Table 1)	Structure (SMILES)
3.84	0.82	105.62%				CNC(=O)[C@@]12C[C@@H]1[C@@H](n1cnc3c4c(c(Cl)nc31)CC(C)N4)[C@H](O)[C@@H]2O (stereo partly drawn) [5A*]
1.33	0.38	102.76%				Cc1cc2c(Cl)nc3c(ncn3[C@@H]3O[C@H](CO)[C@@H](O)[C@H]3O)c2[nH]1 [6A*]
0.619	0.91	47.98%				Cc1cc2c(C#CC3CC3)nc3c(ncn3[C@H]3[C@H](O)[C@H](O)C4C[C@@H]43)c2[nH]1 (stereo partly drawn) [7A*]
5.84	6	107.96%				CNC(=O)[C@@]12C[C@@H]1[C@@H](n1cnc3c4c(c(Cl)nc31)C(O)CC(C)N4)[C@H](O)[C@@H]2O (stereo partly drawn) [8A* and 8B*]
5.34	2.15	74.92%				O[C@H]1[C@H](n2cnc3c4[nH]c(Cc5ccccc5)cc4c(Cl)nc32)[C@H]2CC2[C@H]1O (stereo partly drawn) [9A*]
2	0.48	105.25%				CNC(=O)[C@@]12C[C@@H]1[C@@H](n1cnc3c4c(c(Cl)nc31)CCC(C)N4)[C@H](O)[C@@H]2O (stereo partly drawn) [10A*]
14.8	11.4	63.56%				CC1Cc2c(Cl)nc3c(ncn3[C@H]3[C@H](O)[C@H](O)C4C[C@@H]43)c2N1 (stereo partly drawn) [12A*]
2.56	2.03	87.04%				Cc1cc2cnc3c(ncn3[C@H]3[C@H](O)[C@H](O)C4C[C@@H]43)c2[nH]1 (stereo partly drawn) [14A*]
2.27	0.2	94.66^# %				Cc1cc2c(Cl)nc3c(ncn3[C@H]3[C@H](O)[C@H](O)C4C[C@@H]43)c2[nH]1 (stereo partly drawn) [15A*]
45.7	5.36	55.74%				CC1CCc2c(Cl)nc3c(ncn3[C@H]3[C@H](O)[C@H](O)C4C[C@@H]43)c2N1 (stereo partly drawn) [16A*]
24.2	4.15	96.54%				Cc1cc2c(Cl)nc3c(ncn3[C@H]3[C@H](O)[C@H](O)[C@]4(C(N)=O)C[C@H]34)c2[nH]1 [25A*]
98	100	5%				Cc1cc2c(Cl)nc3c(ncn3[C@H]3[C@H](O)[C@H](O)[C@]4(C#N)C[C@H]34)c2[nH]1 [26A*]
			1.09	1	5	Cn1nnc([C@@]23C[C@@H]2[C@@H](n2cnc4c5[nH]c(C(F)F)cc5c(Cl)nc42)[C@H](O)[C@@H]3O)n1 [Compound 1B]
			1.24	0.17	104	Cc1cc2c(Cl)nc3c(ncn3[C@H]3[C@H](O)[C@H](O)[C@]4(c5ncn(C)n5)C[C@H]34)c2[nH]1 [Compound 2B]
			1.27	1	31.72	Cc1nc2c(Cl)nc3c(ncn3[C@H]3[C@H](O)[C@H](O)[C@]4(c5nnn(C)n5)C[C@H]34)c2[nH]1 [Compound 3B]
			2.72	100	10	Cn1nnc([C@@]23C[C@@H]2[C@@H](n2cnc4c5[nH]c(C=O)cc5c(Cl)nc42)[C@H](O)[C@@H]3O)n1 [Compound 4B]
			2.83	3	34.29	Cn1nnc([C@@]23C[C@@H]2[C@@H](n2cnc4c5[nH]c(CO)cc5c(Cl)nc42)[C@H](O)[C@@H]3O)n1 [Compound 5B]
			6.36	0.14	105.39	Cc1cc2c(Cl)nc3c(ncn3[C@H]3[C@H](O)[C@H](O)[C@]4(c5ncc[nH]5)C[C@H]34)c2[nH]1 [Compound 6B]
			12.1	1.87	104.81	N#Cc1cc(NCc2cc(Cl)ccc2Cl)c2ncn([C@H]3[C@H](O)[C@H](O)[C@]4(c5ncc[nH]5)C[C@H]34)c2n1 [Compound 8B]
			38.6	4.61	103.89	O[C@H]1[C@H](n2cnc3c(NCc4cc(Cl)ccc4Cl)cc(Cl)nc32)[C@H]2C[C@@]2(c2ncc[nH]2)[C@H]1O [Compound 9B]
